# Assay results published in patent US11535643B2, “Macrolides with modified desosamine sugars and uses thereof” (President and Fellows of Harvard College, priority 2015, dated 2022).
# Like-named read-outs stand apart in the source and are kept apart here.
# Key:
# Assay type in all cases: cell-based
# [1] = tested on: K. pneumoniae; test: Broth dilution MIC determination (CLSI) against K. pneumoniae strains; conditions: for MIC: Klebsiella pneumoniae
# Method in brief: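 CLSI broth-dilution MICs across a panel including multidrug- and macrolide-resistant strains, with azithromycin and solithromycin as control compounds.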
# [2] = tested on: A. baumannii; test: Broth dilution MIC determination (CLSI) against A. baumannii strains; conditions: for MIC: Acinetobacter baumannii
# Method in brief: (§1)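 Strains, including multidrug-resistant and macrolide-resistant ones, were exposed to macrolides in broth dilution per CLSI standards, and the lowest inhibiting concentration was recorded as MIC. Azithromycin and solithromycin were run alongside.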
# [3] = tested on: E. coli; test: Broth dilution MIC determination (CLSI) against E. coli strains; conditions: for MIC: Escherichia coli
# Method in brief: as §1
# [4] = tested on: S. pneumoniae; test: Broth dilution MIC determination (CLSI) against S. pneumoniae strains; conditions: for MIC: Streptococcus pneumoniae
# Method in brief: as §1
# [5] = tested on: H. influenzae; test: Broth dilution MIC determination (CLSI) against H. influenzae strains; conditions: for MIC: Haemophilus influenzae
# Method in brief: as §1
# [6] = tested on: S. aureus; test: Broth dilution MIC determination (CLSI) against S. aureus strains; conditions: for MIC: Staphylococcus aureus
# Method in brief: as §1
# [7] = tested on: E. faecalis; test: Broth dilution MIC determination (CLSI) against E. faecalis strains; conditions: for MIC: Enterococcus faecalis
# Method in brief: as §1
# [8] = tested on: S. pyogenes; test: Broth dilution MIC determination (CLSI) against S. pyogenes strains; conditions: for MIC: Streptococcus pyogenes
# Method in brief: as §1
# [9] = tested on: P. aeruginosa; test: Broth dilution MIC determination (CLSI) against P. aeruginosa strains; conditions: for MIC: Pseudomonas aeruginosa
# Method in brief: as §1
# [10] = ATCC10031, ATCC10031, read-out: MIC K. pneumoniae ATCC10031
# [11] = KPC-2, read-out: MIC K. pneumoniae KPC-2
# [12] = ATCC19606, ATCC19606, read-out: MIC A. baumannii ATCC19606
# [13] = imipenem-resistant, read-out: MIC A. baumannii imipenem-resistant
# [14] = ATCC25922, ATCC25922, read-out: MIC E. coli ATCC25922
# [15] = read-out: MIC E. coli NDM-1, NDM-1
# [16] = ATCC49619, ATCC49619, read-out: MIC S. pneumoniae ATCC49619
# [17] = erm B + mef A genotype, read-out: MIC S. pneumoniae erm B + mef A genotype
# [18] = erm B + tet(M, O) genotype, read-out: MIC S. pneumoniae erm B + tet(M, O) genotype
# [19] = read-out: MIC S. pneumoniae mef A genotype, mef A genotype, first of two such columns (c3)
# [20] = ATCC49247, ATCC49247, read-out: MIC H. influenzae ATCC49247
# [21] = erythro > 4, azithro 1, read-out: MIC H. influenzae erythro > 4, azithro 1
# [22] = ATCC29213, ATCC29213, read-out: MIC S. aureus ATCC29213
# [23] = MRSA / USA100, MRSA: USA100, read-out: MIC S. aureus MRSA: USA100
# [24] = MRSA / USA300, MRSA: USA300, read-out: MIC S. aureus MRSA: USA300
# [25] = USA600, USA600, GISA, read-out: MIC S. aureus USA600, GISA
# [26] = read-out: MIC S. aureus erm A genotype
# [27] = ATCC29212, ATCC29212, read-out: MIC E. faecalis ATCC29212
# [28] = Vancomycin-resistant, read-out: MIC E. faecalis Vancomycin-resistant
# [29] = ATCC19615, ATCC19615, read-out: MIC S. pyogenes ATCC19615
# [30] = macrolide-resistant, read-out: MIC S. pyogenes macrolide-resistant
# [31] = ATCC27853, read-out: MIC P. aeruginosa ATCC27853
structure (smiles),measurement,setting,value
CC[C@H]1OC(=O)[C@H](C)C(=O)[C@H](C)[C@@H](O[C@@H]2OC(CN(C)C)CC(N(C)C)C2O)[C@](C)(OC)C[C@@H](C)CN(C)[C@H](C)[C@H]2N(CCCCn3cc(-c4cccc(N)c4)nn3)C(=O)O[C@]12C (stereo partly shown) [FSM-22003],MIC,[1]; [10],8 µg/mL
same,MIC,[1]; [11],> 32 µg/mL
same,MIC,"[1]; SHV-12, read-out: MIC K. pneumoniae SHV-12",> 32 µg/mL
same,MIC,"[1]; TEM-10, read-out: MIC K. pneumoniae TEM-10",> 32 µg/mL
same,MIC,[2]; [12],> 32 µg/mL
same,MIC,"[2]; IMP-4, read-out: MIC A. baumannii IMP-4",> 32 µg/mL
same,MIC,"[2]; chromosomal class C, read-out: MIC A. baumannii chromosomal class C",> 32 µg/mL
same,MIC,[2]; [13],> 32 µg/mL
same,MIC,[3]; [14],> 32 µg/mL
same,MIC,"[3]; read-out: MIC E. coli CTX-M-14, CTX-M-14",> 32 µg/mL
same,MIC,[3]; [15],> 32 µg/mL
same,MIC,"[3]; read-out: MIC E. coli TEM-1, TEM-1",32 µg/mL
same,MIC,[4]; [16],≤ 0.0312 µg/mL
same,MIC,[4]; [17],32 µg/mL
same,MIC,[4]; [18],≤ 0.0312 µg/mL
same,MIC,"[4]; read-out: MIC S. pneumoniae mef A genotype, mef A genotype",0.5 µg/mL
same,MIC,[4]; [19],0.0625 µg/mL
same,MIC,[5]; [20],8 µg/mL
same,MIC,[5]; [21],4 µg/mL
same,MIC,[6]; [22],8 µg/mL
same,MIC,[6]; [23],> 32 µg/mL
same,MIC,[6]; [24],> 32 µg/mL
same,MIC,[6]; [25],> 32 µg/mL
same,MIC,[6]; [26],> 32 µg/mL
same,MIC,[7]; [27],4 µg/mL
same,MIC,[7]; [28],> 32 µg/mL
same,MIC,[8]; [29],≤ 0.0312 µg/mL
same,MIC,[8]; [30],2 µg/mL
same,MIC,[9]; [31],> 32 µg/mL
same,MIC,[9]; read-out: MIC P. aeruginosa HPA101-1477,> 32 µg/mL
CCC1OC(=O)C(C)(F)C(=O)C(C)C(OC2OC(COC(=O)c3ccccc3)C(O)C(N(C)C)C2O)C(C)(OC)CC(C)CNC(C)C2N(CCCCn3cc(-c4cccc(N)c4)nn3)C(=O)OC12C (stereo not shown) [FSM-21798],MIC K. pneumoniae ATCC10031,[1]; ATCC10031,>32 µg/mL
same,MIC K. pneumoniae KPC-2,[1]; KPC-2,>32 µg/mL
same,MIC A. baumannii ATCC19606,[2]; ATCC19606,>32 µg/mL
same,MIC A. baumannii imipenem-resistant,[2]; imipenem-resistant,>32 µg/mL
same,MIC E. coli ATCC25922,[3]; ATCC25922,>32 µg/mL
same,MIC E. coli NDM-1,[3]; NDM-1,>32 µg/mL
same,MIC S. pneumoniae ATCC49619,[4]; ATCC49619,>32 µg/mL
same,MIC S. pneumoniae erm B + mef A genotype,[4]; erm B + mef A genotype,>32 µg/mL
same,"MIC S. pneumoniae erm B + tet(M, O) genotype","[4]; erm B + tet(M, O) genotype",>32 µg/mL
same,MIC H. influenzae ATCC49247,[5]; ATCC49247,>32 µg/mL
same,"MIC H. influenzae erythro > 4, azithro 1","[5]; erythro > 4, azithro 1",>32 µg/mL
same,MIC S. aureus ATCC29213,[6]; ATCC29213,>32 µg/mL
same,MIC S. aureus MRSA: USA100,[6]; MRSA: USA100,>32 µg/mL
same,MIC S. aureus MRSA: USA300,[6]; MRSA: USA300,>32 µg/mL
same,"MIC S. aureus USA600, GISA","[6]; USA600, GISA",>32 µg/mL
same,MIC S. aureus erm A genotype,[6]; erm A genotype,>32 µg/mL
same,MIC E. faecalis ATCC29212,[7]; ATCC29212,32 µg/mL
same,MIC E. faecalis Vancomycin-resistant,[7]; Vancomycin-resistant,>32 µg/mL
same,MIC S. pyogenes ATCC19615,[8]; ATCC19615,8 µg/mL
same,MIC S. pyogenes macrolide-resistant,[8]; macrolide-resistant,32 µg/mL
same,MIC P. aeruginosa ATCC27853,[9]; ATCC27853,>32 µg/mL
CC[C@H]1OC(=O)[C@H](C)C(=O)[C@H](C)[C@@H](O[C@@H]2OC(CNC(=O)c3cc[nH]n3)CC(N(C)C)C2O)[C@](C)(OC)C[C@@H](C)CN[C@H](C)[C@H]2N(CCCCn3cc(-c4cccc(N)c4)nn3)C(=O)O[C@]12C (stereo partly shown) [FSM-21888],MIC,[1]; [10],8 µg/mL
same,MIC,[1]; [11],> 32 µg/mL
same,MIC,[2]; [12],> 32 µg/mL
same,MIC,[2]; [13],> 32 µg/mL
same,MIC,[3]; [14],32 µg/mL
same,MIC,[3]; [15],> 32 µg/mL
same,MIC,[4]; [16],< 0.0313 µg/mL
same,MIC,[4]; [17],2 µg/mL
same,MIC,[4]; [18],< 0.0313 µg/mL
same,MIC,[4]; [19],0.25 µg/mL
same,MIC,[5]; [20],8 µg/mL
same,MIC,[5]; [21],8 µg/mL
same,MIC,[6]; [22],32 µg/mL
same,MIC,[6]; [23],> 32 µg/mL
same,MIC,[6]; [24],> 32 µg/mL
same,MIC,[6]; [25],> 32 µg/mL
same,MIC,[6]; [26],> 32 µg/mL
same,MIC,[7]; [27],4 µg/mL
same,MIC,[7]; [28],> 32 µg/mL
same,MIC,[8]; [29],< 0.0313 µg/mL
same,MIC,[8]; [30],1 µg/mL
same,MIC,[9]; [31],> 32 µg/mL
